From US20060019997A1, “Triazole compounds and their use as metabotropic glutamate receptor antagonists” (AstraZeneca AB, priority 2004, published 2006)

Molecular target: T1, human mGluR5d (Homo sapiens, UniProt P41594)
T1 construct: expressed in transfected cells
Assay: FLIPR analysis of [Ca2+]i mobilization (Group I receptor antagonist activity)
Type: cell-based
Settings: cells expressing human mGluR5d; antagonist block of agonist challenge
Source text: The pharmacological properties of the compounds of the invention can be analyzed using standard assays for functional activity. Examples of glutamate receptor assays are well known in the art as described in for example Aramori et al., Neuron 8:757 (1992), Tanabe et al., Neuron 8:169 (1992), Miller et al., J. Neuroscience 15: 6103 (1995), Balazs, et al., J. Neurochemistry 69:151 (1997). The methodology described in these publications is incorporated herein by reference. Conveniently, the compounds of the invention can be studied by means of an assay that measures the mobilization of intracellular calcium, [Ca^2+]i in cells expressing mGluR5. […]
(§1) FLIPR experiments were done using a laser setting of 0.800 W and a 0.4 second CCD camera shutter speed. […] After each addition of the compound, the fluorescence signal was sampled 50 times at 1 second intervals followed by 3 samples at 5 second intervals. Responses were measured as the peak height of the response within the sample period. […]
as §1, with “speed with excitation and emission wavelengths of 488 nm and 562 nm, respectively.” for “speed.”, “addition” for “addition of the compound,”

T1 sequence (P41594 21-942 isoform P41594-3 limits assumed): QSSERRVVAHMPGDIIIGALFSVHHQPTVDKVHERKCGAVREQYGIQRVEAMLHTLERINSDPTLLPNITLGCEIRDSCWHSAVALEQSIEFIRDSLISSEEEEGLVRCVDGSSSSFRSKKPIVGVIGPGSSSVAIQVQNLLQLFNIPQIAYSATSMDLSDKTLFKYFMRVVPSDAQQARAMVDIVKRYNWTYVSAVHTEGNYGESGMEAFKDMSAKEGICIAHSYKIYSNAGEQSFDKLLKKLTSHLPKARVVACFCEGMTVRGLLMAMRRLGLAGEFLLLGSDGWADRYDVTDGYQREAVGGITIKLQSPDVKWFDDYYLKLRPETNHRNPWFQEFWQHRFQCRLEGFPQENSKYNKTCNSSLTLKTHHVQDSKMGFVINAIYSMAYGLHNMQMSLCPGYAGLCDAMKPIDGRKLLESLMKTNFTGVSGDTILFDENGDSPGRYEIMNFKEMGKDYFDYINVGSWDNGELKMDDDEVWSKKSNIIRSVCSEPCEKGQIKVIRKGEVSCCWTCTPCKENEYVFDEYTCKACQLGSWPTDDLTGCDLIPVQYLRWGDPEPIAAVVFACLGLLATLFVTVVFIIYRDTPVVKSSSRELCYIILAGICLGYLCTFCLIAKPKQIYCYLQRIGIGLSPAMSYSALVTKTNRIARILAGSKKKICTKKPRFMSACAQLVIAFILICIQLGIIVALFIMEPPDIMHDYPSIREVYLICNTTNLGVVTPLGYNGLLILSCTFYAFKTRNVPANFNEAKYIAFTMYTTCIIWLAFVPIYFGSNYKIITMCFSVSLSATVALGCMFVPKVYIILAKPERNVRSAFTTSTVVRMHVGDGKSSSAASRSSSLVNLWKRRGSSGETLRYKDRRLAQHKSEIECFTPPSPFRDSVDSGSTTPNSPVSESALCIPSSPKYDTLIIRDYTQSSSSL

IC50 [µM] | Compound
0.265 | Clc1cccc(-n2cc(CSc3nnc(-c4ccncc4)n3C3CC3)nn2)c1 [4-{5-[1-(3-Chloro-phenyl)-1H-[1,2,3]triazol-4-ylmethylsulfanyl]-4-cyclopropyl-4H-[1,2,4]triazol-3-yl}-pyridine]
0.027 | CC(Oc1nnc(-c2ccncc2)n1C)c1cnn(-c2cccc(Cl)c2)n1 (centres unmarked) [4-(5-{1-[2-(3-chlorophenyl)-2H-1,2,3-triazol-4-yl]ethoxy}-4-methyl-4H-1,2,4-triazol-3-yl)pyridine]
